Molecular target: T1, human TMEM16A (TMEM16Aabc variant) (Homo sapiens, UniProt Q5XXA6, DEL476-501)
T1 sequence (Q5XXA6 with tags, fused parts or gaps isoform Q5XXA6-5 DEL539-564): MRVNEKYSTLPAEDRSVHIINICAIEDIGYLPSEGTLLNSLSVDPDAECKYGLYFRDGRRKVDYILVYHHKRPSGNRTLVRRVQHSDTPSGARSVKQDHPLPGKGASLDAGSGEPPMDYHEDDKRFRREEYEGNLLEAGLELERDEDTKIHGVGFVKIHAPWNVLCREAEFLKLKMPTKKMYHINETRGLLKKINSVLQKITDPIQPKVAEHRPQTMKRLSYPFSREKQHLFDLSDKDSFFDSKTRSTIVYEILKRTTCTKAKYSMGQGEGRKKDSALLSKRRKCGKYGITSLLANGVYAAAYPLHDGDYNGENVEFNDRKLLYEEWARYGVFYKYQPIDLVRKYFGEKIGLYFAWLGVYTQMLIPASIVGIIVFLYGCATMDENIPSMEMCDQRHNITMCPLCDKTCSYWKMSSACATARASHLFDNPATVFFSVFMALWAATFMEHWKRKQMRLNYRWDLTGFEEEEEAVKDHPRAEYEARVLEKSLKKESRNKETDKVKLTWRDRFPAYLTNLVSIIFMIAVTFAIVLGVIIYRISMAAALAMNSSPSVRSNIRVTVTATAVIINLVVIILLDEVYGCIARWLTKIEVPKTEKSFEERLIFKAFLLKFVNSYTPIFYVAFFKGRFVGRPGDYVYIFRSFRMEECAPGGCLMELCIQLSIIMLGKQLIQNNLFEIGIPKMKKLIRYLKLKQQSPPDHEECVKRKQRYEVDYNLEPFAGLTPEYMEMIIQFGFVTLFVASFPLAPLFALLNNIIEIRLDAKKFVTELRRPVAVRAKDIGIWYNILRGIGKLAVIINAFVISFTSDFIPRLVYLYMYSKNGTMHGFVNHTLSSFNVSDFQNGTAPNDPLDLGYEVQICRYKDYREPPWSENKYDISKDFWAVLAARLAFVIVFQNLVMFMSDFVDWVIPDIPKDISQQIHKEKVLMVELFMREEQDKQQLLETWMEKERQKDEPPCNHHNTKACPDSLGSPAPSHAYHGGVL
Test: Automated whole-cell patch clamp (Qpatch) TMEM16A potentiator assay in recombinant cells
Assay type: cell-based
Conditions: FRT cells stably expressing human TMEM16A, intracellular calcium at EC20; for % Potentiation @ 3.33 μM Avg: 3.33 μM solution of test compound, percentage increase of baseline TMEM16A current, peak current at +70 mV; for EC50: calculated from cumulative concentration response curve, whole-cell patch clamp
Procedure: Automated Whole-Cell Patch Clamp Assay to Detect TMEM16A Activity in Recombinant Cells
Cell Culture and Preparation
Fisher rat thyroid (FRT) cells stably expressing human TMEM16A (TMEM16Aabc variant; Dr Luis Galietta, Insituto Giannina, Italy) were cultured in T-75 flasks in Hams F-12 media with Coon's modification (Sigma) supplemented with 10% (v/v) foetal bovine serum, penicillin-streptomycin (10,000 U/mL/10000 μg/mL), G-418 (750 μg/mL), L-glutamine (2 mM) and sodium bicarbonate solution (7.5% v/v). At ˜90% confluence cells were harvested for experiments by detachment with a 2:1 (v/v) mixture of Detachin (BMS Biotechnology) and 0.25% (w/v) trypsin-EDTA. Cells were diluted to a density of 3.5-4.5×10^6 cells/mL with media consisting of CHO-S-SFM II (Sigma), 25 mM HEPES (Sigma) and Soy bean trypsin inhibitor (Sigma).
Whole-Cell Patch Clamp Recording
FRT-TMEM16A cells were whole-cell patch clamped using an automated planar patch clamp system (Qpatch, Sophion). Briefly, once high resistance (GOhm) seals were established between the cells and the planar recording array the patch was ruptured using suction pulses to establish the whole-cell recording configuration of the patch clamp technique. The assay employed the following solutions (all reagents Sigma):
Intracellular solution (mM): N-methyl-D-glucamine 130, CaCl2 18.2, MgCl2 1, HEPES 10, EGTA 10, BAPTA 20, Mg-ATP 2, pH 7.25, 325 mOsm with sucrose.
Extracellular solution (mM): N-methyl-D-glucamine 130, CaCl2 2, MgCl2 1, HEPES 10, pH 7.3, 320 mOsm with sucrose.
The intracellular solution buffers intracellular calcium at levels required to give ˜20% activation of the maximal TMEM16A mediated current (EC20 for calcium ions). Cells were voltage clamped at a holding potential of −70 mV and a combined voltage step (to +70 mV)/ramp (−90 my to +90 mV) was applied at 0.05 Hz. After a period of current stabilisation test compounds, solubilised in 100% (v/v) DMSO and subsequently diluted into extracellular solution, were applied to generate a cumulative concentration response curve. Each concentration of test compound was incubated for 5 minutes before addition of the next concentration. After the final concentration was tested a supramaximal concentration of either a known active positive modulator or the TMEM16A inhibitor, CaCCinhA01 (Del La Fuente et al, 2008) was added to define the upper and lower limits of the assay.
Compound activity was quantified by measuring the increase in current upon compound addition and expressing this as a percentage increase of baseline TMEM16A current level. Percentage increases in current were determined for each concentration and the data plotted as a function of concentration using either the Qpatch software or Graphpad Prism v6.05 providing the concentration which gave 50% of its maximal effect (EC50) and maximum efficacy (percentage of baseline increase).
In FIG. 1, IBL equals baseline current, I[#1] equals the peak current during test compound concentration 1 incubation period and so on.
Peak TMEM16A current at +70 mV was plotted as a function of time over the assay period. Baseline current (IBL) was measured after a period of stabilisation. The increase in current for each compound addition was determined by taking the peak current during the incubation period and subtracting the current from the previous recording period and then expressing this as a percentage of the baseline current. For test compound concentration 1 in FIG. 1 this is:
For each additional concentration tested the increase in current was determined by subtracting the current from the previous incubation period and normalising the baseline value—for test concentration 2 in FIG. 1 this is:
The values for each test concentration were plotted as a cumulative function of concentration e.g. for test concentration two this would be the sum of the peak changes measured during concentration one plus concentration two.

Structure (SMILES)	% Potentiation @ 3.33 μM Avg [%]	EC50 [nM]
Cc1c2ccc(NC(=O)CC34CC5CC(CC(C5)C3)C4)cc2nn1Cc1ccccc1 [Example 17, 2-(1-Adamantyl)-N-(2-benzyl-3-methyl-indazol-6-yl)acetamide]	118.3	918
CC(C)(C)c1nc2cc(NC(=O)Cc3cc(Cl)ccc3O)ccc2[nH]1 [Example 18, N-(2-tert-Butyl-1H-benzimidazol-5-yl)-2-(5-chloro-2-hydroxy-phenyl)acetamide]	95.9	156
CC(C)(CNC(=O)OC(C)(C)C)CNC(=O)c1ccc2[nH]c(Cc3ccccc3)nc2c1 [Example 19, tert-Butyl N-[3-[(2-benzyl-1H-benzimidazole-5-carbonyl)amino]-2,2-dimethyl-propyl]carbamate]	181.6	936
CC(C)(C)c1nc2ccc(C(=O)NCC3CCCCCC3)cc2[nH]1 [Example 20, 2-tert-Butyl-N-(cycloheptylmethyl)-3H-benzimidazole-5-carboxamide]	85.9	776
CC(C)(C)c1cc(F)c(Cc2nc3cc(C(=O)NC4(C(F)(F)F)CC4)ccc3[nH]2)cc1O [Example 21, 2-[(4-tert-Butyl-2-fluoro-5-hydroxy-phenyl)methyl]-N-[1-(trifluoromethyl)cyclopropyl]-1H-benzimidazole-5-carboxamide]	262	99
CC(C)(O)c1cc(F)c(CC(=O)Nc2ccc3[nH]c(C4(C(F)(F)F)CC4)nc3c2)cc1O [Example 22, 2-[2-Fluoro-5-hydroxy-4-(1-hydroxy-1-methyl-ethyl)phenyl]-N-[2-[1-(trifluoromethyl)cyclopropyl]-1H-benzimidazol-5-yl]acetamide]	149	168
CC(C)(C)c1cc(F)c(CC(=O)Nc2ccc3[nH]c(C4(C(F)(F)F)CC4)nc3c2)cc1O [Example 23, 2-(4-tert-Butyl-2-fluoro-5-hydroxy-phenyl)-N-[2-[1-(trifluoromethyl)cyclopropyl]-1H-benzimidazol-5-yl]acetamide]	153	52
O=C(NCCC(F)(F)F)c1ccc2[nH]c(Cc3ccccc3)nc2c1 [Example 24, 2-Benzyl-N-(3,3,3-trifluoropropyl)-1H-benzimidazole-5-carboxamide]	69	1100
O=C(NCC1CCCCCC1)c1ccc2[nH]c(Cc3c(O)cccc3F)nc2c1 [Example 25, N-(Cycloheptylmethyl)-2-[(2-fluoro-6-hydroxy-phenyl)methyl]-1H-benzimidazole-5-carboxamide]	57	36
CC(C)(C)Cc1nc2cc(NC(=O)Cc3cc(Cl)ccc3O)ccc2[nH]1 [Example 26, 2-(5-Chloro-2-hydroxy-phenyl)-N-[2-(2,2-dimethylpropyl)-1H-benzimidazol-5-yl]acetamide]	69	98
CC(C)(C)c1nc2cc(NC(=O)Cc3cc(Cl)ccc3O)ccc2[nH]1 [Example 27, N-(2-tert-Butyl-1H-benzimidazol-5-yl)-2-(5-chloro-2-hydroxy-phenyl)acetamide]	96	156

Now from value to molecule:

% Potentiation @ 3.33 μM Avg [%]	EC50 [nM]	Structure (SMILES)
275	227	CC(C)(C)c1cc(F)c(Cc2nc3cc(C(=O)NCC4(C(F)(F)F)CC4)ccc3[nH]2)cc1O [Example 21.1, 2-[(4-tert-Butyl-2-fluoro-5-hydroxy-phenyl)methyl]-N-[[1-(trifluoromethyl)cyclopropyl]methyl]-1H-benzimidazole-5-carboxamide]
272	150	CC(C)(C)c1cc(F)c(Cc2nc3cc(C(=O)NCCC(F)(F)F)ccc3[nH]2)cc1O [Example 21.2, 2-[(4-tert-Butyl-2-fluoro-5-hydroxy-phenyl)methyl]-N-(3,3,3-trifluoropropyl)-1H-benzimidazole-5-carboxamide]
106	176	O=C(NCC1CCCC1)c1ccc2[nH]c(Cc3ccccc3)nc2c1 [Example 24.1, 2-Benzyl-N-(cyclopentylmethyl)-1H-benzimidazole-5-carboxamide]
137	120	O=C(NCC1CCCCCC1)c1ccc2[nH]c(Cc3ccccc3)nc2c1 [Example 24.2, 2-Benzyl-N-(cycloheptylmethyl)-1H-benzimidazole-5-carboxamide]
142	76	O=C(NCC1CCCCCC1)c1ccc2[nH]c(Cc3cc(F)ccc3O)nc2c1 [Example 25.1, N-(Cycloheptylmethyl)-2-[(5-fluoro-2-hydroxy-phenyl)methyl]-1H-benzimidazole-5-carboxamide]
83	200	O=C(NCC1CCCCCC1)c1ccc2[nH]c(Cc3cccc(F)c3O)nc2c1 [Example 25.2, N-(Cycloheptylmethyl)-2-[(3-fluoro-2-hydroxy-phenyl)methyl]-1H-benzimidazole-5-carboxamide]
104	76	O=C(NCC1CCCCCC1)c1ccc2[nH]c(Cc3ccccc3O)nc2c1 [Example 25.3, N-(Cycloheptylmethyl)-2-[(2-hydroxyphenyl)methyl]-1H-benzimidazole-5-carboxamide]
120	130	O=C(NCC1CCCCCC1)c1ccc2[nH]c(Cc3ccc(F)cc3O)nc2c1 [Example 25.4, N-(Cycloheptylmethyl)-2-[(4-fluoro-2-hydroxy-phenyl)methyl]-1H-benzimidazole-5-carboxamide]
66	223	O=C(NCC1CCCCCC1)c1ccc2[nH]c(Cc3cccc(O)c3)nc2c1 [Example 25.5, N-(Cycloheptylmethyl)-2-[(3-hydroxyphenyl)methyl]-1H-benzimidazole-5-carboxamide]

— patent publication US12552770B2, “Compounds for treating respiratory disease” (TMEM16A Limited, priority 2020, dated 2026)
